Test results published in patent US20080293583A1, “Methods for diagnosing mood disorders” (Wyeth, priority 2003, published 2008).

Assays:
Format in all cases: in vivo
[1] = tested on: Proteasome subunit alpha type 2 (Multicatalytic endopeptidase complex subunit C3); test: 2-DE proteome analysis of rat hippocampus: Proteasome subunit alpha type 2; settings: rat hippocampus cytosolic extract, 10 mg/kg i.p. daily 14 days, vs control
Procedure: (§1) Animal dosing. Adult male Sprague Dawley rats weighing 230-320 g were housed with ad libitum access to food and water. After 1 week of habituation, rats were administered either an antidepressant or vehicle alone. The following drugs were administered intraperitoneally (i.p.): fluoxetine (10 mg/kg daily), venlafaxine (10 mg/kg daily) or vehicle alone (1 ml/kg normal saline daily) for 14 days (n=3 rats per group).
Sample preparation and cytosolic protein extraction. The animals were euthanized and hippocampi were rapidly dissected from the whole brain. Samples from each treatment group were pooled and stored at −85° C. Cytosolic extracts were prepared using the universal extraction kit from Sigma (prot-two) as follows: soluble cytoplasmic extraction reagent (S2688) was added to the hippocampal tissue (10 ml/250 mg wet weight). Samples were sonicated (4 times at 30 seconds) and centrifuged for 45 minutes (14,000 g) at 4° C. The supernatant was decanted and stored on ice. Ten milliliters of the soluble cytoplasmic extraction reagent was added to the remaining pellet and the sonication and centrifugation steps were repeated. The supernatant was decanted, combined with the previous supernatant and SpeedVac (Savant Instruments, Halbrook, N.Y.) dried. Each sample was dissolved in 2 ml of 2-D lysis buffer (6 M urea, 2 M thiourea, 4% CHAPS, 40 mM Tris, 65 mM dithiothreitol (DTT), 1 mM sodium vanadate, 1 mM sodium fluoride, protease inhibitor tablet (#1836145, Roche)), concentrated and desalted (Centricon tube; 6500 rpm) at 10° C. for 12 hours.
Two-dimensional gel electrophoresis. First dimensional isoelectric focusing (IEF) was performed on 18 cm IPG strips (pH 4-7) using an IPGphor unit (Amersham Pharmacia). Each strip was rehydrated for 16 hours with sample lysate (˜500 ug) in a final volume of 400 uL of IEF solution (10 uL of bromophenol blue (0.25% w/v); 2 uL of Ampholyte (pH 4-7, Amersham #17-6000-86); 2-D lysis buffer). […] The strips were then subjected to a two-step equilibration (50 mM Tris; 2% SDS; 30% glycerol) in (A) 0.5% DTT (Bio-Rad) and (B) 4.5% iodoacetamide (Sigma) buffers before proceeding to SDS-PAGE. […] Molecular masses were determined by running standard protein markers (Genomic Solutions Inc.), covering the range 10-200 kDa as well as internal verification via landmark proteins within the gel. […]
(§2) Protein fixation, silver staining and 2-D gel comparisons. […] Protein spots were outlined (first automatically and then manually) and quantified using the HT analyzer v2.2 software (Genomic Solutions Inc.). The software calculated the relative spot volume of the proteins compared with the total amount of protein in the gel. […]

[2] = tested on: Transcription Initiation factor IIA Gamma Chain; test: 2-DE proteome analysis of rat hippocampus: TFIIA Gamma Chain; settings: rat hippocampus cytosolic extract, 10 mg/kg i.p. daily 14 days, vs control; gel spot 88
Procedure: as §1
(§3) Sample preparation and cytosolic protein extraction. The animals were euthanized and hippocampi were rapidly dissected from the whole brain. Samples from each treatment group were pooled and stored at −85° C. Cytosolic extracts were prepared using the universal extraction kit from Sigma (prot-two) as follows: soluble cytoplasmic extraction reagent (S2688) was added to the hippocampal tissue (10 ml/250 mg wet weight). […]
(§4) Two-dimensional gel electrophoresis. […] Molecular masses were determined by running standard protein markers (Genomic Solutions Inc.), covering the range 10-200 kDa as well as internal verification via landmark proteins within the gel. […]
as §2

[3] = tested on: Cytochrome C oxidase polypeptide VB, mitochondrial precursor (COX5B); test: 2-DE proteome analysis of rat hippocampus: COX5B; settings: rat hippocampus cytosolic extract, 10 mg/kg i.p. daily 14 days, vs control; gel spot 86
Procedure: as §1, §3, §4, §2

## CNCCC(Oc1ccc(C(F)(F)F)cc1)c1ccccc1 (centres unmarked) [Fluoxetine, fluoxetine]
[1]; gel spot 27
  Fold change, Proteasome subunit alpha type 2: 6.1 Fold change
[1]; gel spot 27, listed as fluoxetine
  Fold change, Proteasome subunit alpha type 2: 6 Fold change
[2]
  Fold change, Transcription Initiation factor IIA Gamma Chain: 2.5 Fold change
[3]
  Fold change, Cytochrome C oxidase polypeptide VB (COX5B): 3.2 Fold change

## COc1ccc(C(CN(C)C)C2(O)CCCCC2)cc1 (centres unmarked) [Venlafaxine, venlafaxine]
[1]; gel spot 27
  Fold change, Proteasome subunit alpha type 2: 10.6 Fold change
[1]; gel spot 27, listed as venlafaxine
  Fold change, Proteasome subunit alpha type 2: 10 Fold change
[2]
  Fold change, Transcription Initiation factor IIA Gamma Chain: 2.4 Fold change
[3]
  Fold change, Cytochrome C oxidase polypeptide VB (COX5B): 4 Fold change
